# Source: PMC7359024, “Synthesis, Structure–Activity Relationship, and Mechanistic Studies of Aminoquinazolinones Displaying Antimycobacterial Activity” (ACS Infectious Diseases, 2020)
# Where two headings read alike, the source gives them in different places.
# Tests used:
# Mtb H37Rv strain = test: MIC90 determination in GASTE-Fe media (broth microdilution); assay type: cell-based, Mycobacterium tuberculosis; set-up: fold loss in activity/potency (MIC90): reference not given here
# physchem = assay type: physicochemical; conditions: for solubility: kinetic solubility, pH 7.4, HPLC method; for fold improvement in solubility: pH 7.4, relative to comparator analogue
# Method: The kinetic solubility assay was performed using a miniaturised shake flask method. 10 mM stock solutions of each of the test compounds were used to prepare calibration standards (10-220μM) in DMSO. The same 10mM stock solutions were accurately dispensed in duplicate into 96-well plates and the DMSO dried down (MiVac GeneVac, 90 min, 37 °C). Thereafter, the samples were reconstituted (200 µM) in phosphate buffered saline (pH 7.4) and shaken (20 hours, 25 °C). The solutions were filtered and analysed by means of HPLC -DAD (Agilent 1200 Rapid Resolution HPLC with a diode array detector). […]
# [1] = assay type: in vitro ADME; conditions: for Metabolic Stability H (% Rem.): human liver microsomes; for Metabolic Stability M (% Rem.): mouse liver microsomes; for Metabolic Stability R (% Rem.): rat liver microsomes
# Method: 3.2. Microsomal stability
# The metabolic stability assay was performed in duplicate in a 96-well micro titre plate. The test compounds (0.1 μM) were incubated individually in mouse, rat and pooled human liver microsomes ((final protein concentration of 0.4 mg/mL; XenoTech, Lenexa, KS ), suspended in 0.1M phosphate buffer (pH 7.4) at 37 °C for predetermined time points, in the presence and absence of the cofactor NADPH (1 mM). Reactions were quenched by adding ice cold acetonitrile containing internal standard (carbamazepine, 0.0236 µg/mL). T he samples were centrifuged and test compound in the supernatant were analysed by means of LC -MS/MS (Agilent Rapid Resolution HPLC, AB SCIEX 4500 MS ). The relative loss of parent compound over time was monitored and plots (concentration vs. time) were prepared per compound to determine the first order rate constant for compound depletion. This was in turn used to calculate half-life, in vitro intrinsic clearance and in vivo hepatic extraction ratio. Metabolite searches were not conducted during the metabolic stability assay. 5
# in vitro = conditions: Chinese hamster
# [2] = Mtb H37Rv, replicating conditions, GASTE-Fe media, read 14 days after incubation, read-out: MIC90 GASTE-Fe
# [3] = Mycobacterium tuberculosis, H37RV, 336 h, Mtb H37Rv, replicating conditions, GASTE-Fe media, read 14 days after incubation, read-out: MIC90 GASTE-Fe
# [4] = Mycobacterium tuberculosis, H37RV, 336 h, read-out: MIC90 GAST-Fe
SMILES,MIC90 (Mtb H37Rv strain; [3]),"solubility (physchem; 25 °C, pH 7.4, aqueous buffer)",Metabolic Stability H (% Rem.) [1],Metabolic Stability M (% Rem.) [1],Metabolic Stability R (% Rem.) [1],MIC90 (Mtb H37Rv strain; [4]),also measured
"NC[C@H]1O[C@H](O[C@H]2[C@H](O)[C@@H](O[C@H]3O[C@H](CO)[C@@H](O)[C@H](N)[C@H]3O)[C@H](N)C[C@@H]2N)[C@H](O)[C@@H](O)[C@@H]1O [Kanamycin, reference compound]",–,–,–,–,–,–,MIC90 (Mtb H37Rv strain; [2]): 1.562 µM
Cc1ccc(S(C)(=O)=O)cc1-c1ccc2nc(N)n(-c3ccc(C(F)(F)F)cc3)c(=O)c2c1 [compound 7],4.22 µM,53.3 µM,65 % Rem.,90 % Rem.,86 % Rem.,–,solubility (physchem): 53 µM; fold improvement in solubility (physchem): 10 fold; IC50 (in vitro): > 100 µM
Nc1nc2ccc(-c3cccc(S(=O)(=O)C4CC4)c3)cc2c(=O)n1-c1ccc(C(F)(F)F)cc1 [compound 8],2.35 µM,66 µM,85 % Rem.,97 % Rem.,98 % Rem.,–,IC50 (in vitro): 0.021 µM
NC(=O)c1cccc(-c2ccc3nc(N)n(-c4ccc(C(F)(F)F)cc4)c(=O)c3c2)c1 [compound 9],< 0.244 µM,< 5 µM,97/-/- % Rem.,–,–,–,IC50 (in vitro): > 100 µM
CN(C)C(=O)c1cccc(-c2ccc3nc(N)n(-c4ccc(C(F)(F)F)cc4)c(=O)c3c2)c1 [compound 10],2.15 µM,46 µM,85 % Rem.,89 % Rem.,86 % Rem.,–,IC50 (in vitro): 0.64 µM
CNC(=O)c1cccc(-c2ccc3nc(N)n(-c4ccc(C(F)(F)F)cc4)c(=O)c3c2)c1 [compound 11],0.78 µM,< 5 µM,98 % Rem.,100 % Rem.,100 % Rem.,–,IC50 (in vitro): 96.3 µM
CNC(=O)c1cncc(-c2ccc3nc(N)n(-c4ccc(C(F)(F)F)cc4)c(=O)c3c2)c1 [compound 12],9.22 µM,40 µM,85 % Rem.,75 % Rem.,85 % Rem.,–,fold loss in activity/potency (MIC90) (Mtb H37Rv strain): 10 fold; solubility (physchem): 39 µM
"Nc1nc2ccc(-c3cncc(C(=O)N4CCOCC4)c3)cc2c(=O)n1-c1ccc(C(F)(F)F)cc1 [compound 17, 2-Amino-6-(5-(morpholine-4-carbonyl)pyridin-3-yl)-3-(4-(trifluoromethyl)phenyl)quinazolin-4(3H)-one]",83 µM,–,–,–,–,–,fold loss in activity/potency (MIC90) (Mtb H37Rv strain): 15 fold
COc1cncc(-c2ccc3nc(N)n(-c4ccc(C(F)(F)F)cc4)c(=O)c3c2)c1 [compound 24],–,40 µM,72/-/- % Rem.,–,–,–,IC50 (in vitro): > 100 µM
COc1cccc(-c2ccc3nc(N)n(-c4ccc(C(F)(F)F)cc4)c(=O)c3c2)c1 [compound 25],10 µM,–,–,–,–,–,–
CC(C)(C)c1cccc(-c2ccc3nc(N)n(-c4ccc(C(F)(F)F)cc4)c(=O)c3c2)c1 [compound 26],10 µM,–,–,–,–,–,IC50 (in vitro): > 100 µM
Nc1nc2ccc(-c3cccc(Cl)c3)cc2c(=O)n1-c1ccc(C(F)(F)F)cc1 [compound 29],0.675 µM,< 5 µM,73/-/- % Rem.,–,–,–,–
NC(=O)c1cccc(-c2ccc3c(=O)n(-c4ccc(C(F)(F)F)cc4)c(N)nc3c2)c1 [compound 33],1.22 µM,58 µM,96 % Rem.,92 % Rem.,93 % Rem.,–,fold improvement in solubility (physchem): 10 fold
C[S+]([O-])c1cccc(-c2ccc3nc(N)n(-c4cccc(C(F)(F)F)c4)c(=O)c3c2)c1 (stereo not shown) [compound 34],–,> 100 µM,50 % Rem.,51 % Rem.,58 % Rem.,14.8 µM,solubility (physchem): 164 µM
C[S+]([O-])c1cccc(-c2ccc3nc(N)n(-c4ccccc4)c(=O)c3c2)c1 (stereo not shown) [compound 35],–,–,–,–,–,33 µM,MIC90 (Mtb H37Rv strain; read-out: MIC90 GAST-Fe): 33.4 µM
Cc1ccc(-n2c(N)nc3ccc(-c4cccc([S+](C)[O-])c4)cc3c2=O)cc1 (stereo not shown) [compound 36],–,> 100 µM,99 % Rem.,71 % Rem.,68 % Rem.,3.09 µM,solubility (physchem): 172 µM

SMILES,MIC90 (Mtb H37Rv strain; [3]),"solubility (physchem; 25 °C, pH 7.4, aqueous buffer)",Metabolic Stability H (% Rem.) [1],Metabolic Stability M (% Rem.) [1],Metabolic Stability R (% Rem.) [1],MIC90 (Mtb H37Rv strain; [4]),also measured
"CS(=O)(=O)c1cccc(-c2ccc3ncn(-c4ccc(C(F)(F)F)cc4)c(=O)c3c2)c1 [compound 38, 6-(3-(Methylsulfonyl)phenyl)-3-(4-(trifluoromethyl)phenyl)quinazolin-4(3H)-one]",2.96 µM,< 5 µM,–,–,–,–,fold loss in activity/potency (MIC90) (Mtb H37Rv strain): 10 fold
"CN(C)c1nc2ccc(-c3cccc([S+](C)[O-])c3)cc2c(=O)n1-c1ccc(C(F)(F)F)cc1 (stereo not shown) [compound 42, 2-(Dimethylamino)-6-(3-(methylsulfinyl)phenyl)-3-(4-(trifluoromethyl)phenyl)quinazolin-4(3H)-one]",2.89 µM,< 5 µM,82 % Rem.,80 % Rem.,86 % Rem.,–,–
"CN(C)c1nc2ccc(-c3cccc(S(C)(=O)=O)c3)cc2c(=O)n1-c1ccc(C(F)(F)F)cc1 [compound 43, 2-(Dimethylamino)-6-(3-(methylsulfonyl)phenyl)-3-(4-(trifluoromethyl)phenyl)quinazolin-4(3H)-one]",> 125 µM,21.6 µM,85 % Rem.,90 % Rem.,94 % Rem.,–,MIC90 (Mtb H37Rv strain; [2]): >125 µM
"C[S+]([O-])c1cccc(-c2ccc3nc(N)n(-c4ccc(C(F)(F)F)nc4)c(=O)c3c2)c1 (stereo not shown) [compound 47, 2-Amino-6-(3-(methylsulfinyl)phenyl)-3-(6-(trifluoromethyl)pyridin-3-yl)quinazolin-4(3H)-one]",–,< 5 µM,93 % Rem.,93 % Rem.,99 % Rem.,0.922 µM,–
C[S+]([O-])c1cccc(-c2ccc3nc(N)n(-c4ccccc4C(F)(F)F)c(=O)c3c2)c1 (stereo not shown) [compound 48],–,–,–,–,–,> 125 µM,–
C[S+]([O-])c1cccc(-c2ccc3nc(N)n(-c4ccc(F)cc4)c(=O)c3c2)c1 (stereo not shown) [compound 49],–,37.8 µM,82 % Rem.,96 % Rem.,93 % Rem.,4.84 µM,solubility (physchem): 38 µM
C[S+]([O-])c1cccc(-c2ccc3nc(N)n(-c4ccccc4F)c(=O)c3c2)c1 (stereo not shown) [compound 50],–,–,–,–,–,67 µM,–
C[S+]([O-])c1cccc(-c2ccc3nc(N)n(-c4ccc(S(C)(=O)=O)cc4)c(=O)c3c2)c1 (stereo not shown) [compound 51],–,–,–,–,–,> 125 µM,–
C[S+]([O-])c1cccc(-c2ccc3nc(N)n(-c4ccc(O)cc4)c(=O)c3c2)c1 (stereo not shown) [compound 52],–,–,–,–,–,> 125 µM,–
COc1ccc(-n2c(N)nc3ccc(-c4cccc([S+](C)[O-])c4)cc3c2=O)cc1 (stereo not shown) [compound 53],–,> 100 µM,100 % Rem.,99 % Rem.,103 % Rem.,6.75 µM,solubility (physchem): 128 µM
C[S+]([O-])c1cccc(-c2ccc3nc(N)n(-c4ccc(C#N)cc4)c(=O)c3c2)c1 (stereo not shown) [compound 54],–,16.3 µM,92 % Rem.,91 % Rem.,98 % Rem.,9.28 µM,solubility (physchem): 16 µM
C[S+]([O-])c1cccc(-c2ccc3nc(N)n(-c4cccc(C#N)c4)c(=O)c3c2)c1 (stereo not shown) [compound 55],–,–,–,–,–,43 µM,–
C[S+]([O-])c1cccc(-c2ccc3nc(N)n(C4CCC(F)(F)CC4)c(=O)c3c2)c1 (stereo not shown) [compound 56],–,> 100 µM,95 % Rem.,83 % Rem.,81 % Rem.,45.7 µM,solubility (physchem): 125 µM
C[S+]([O-])c1cccc(-c2ccc3nc(N)n(C4CCC(C(F)(F)F)CC4)c(=O)c3c2)c1 (stereo not shown) [compound 57],–,–,–,–,–,2.75 µM,–
C[S+]([O-])c1cccc(-c2ccc3nc(N)n(Cc4ccc(C(F)(F)F)cc4)c(=O)c3c2)c1 (stereo not shown) [compound 58],–,> 100 µM,52 % Rem.,69 % Rem.,61 % Rem.,> 31 µM,solubility (physchem): 104 µM
